Tested on: TNFα-induced NF-κB activity
Assay: Counter-screen NF-κB luciferase assay, NF-κB-Luc reporter cells stimulated with TNFα
Assay type: cell-based, human
Protocol: Briefly, Fn14-NF-κB-Luc reporter cells, (Fn14 overexpressing HEK293 NF-κB luciferase cells), were seeded in tissue culture treated white 96-well plates at 1×10^4 cells/well in 80 μL Opti-MEM media (Invitrogen) and incubated for 48 hr at 37° C. After 48 hr incubation, 10 μL of the drug solution (200 μM) in DMSO was added to the designated wells at a final concentration of 20 μM. After 1 hr of drug incubation at 37° C., 10 μL of 10× purified recombinant TWEAK (Peprotech Inc.; 300 ng/mL) in 1 mg/mL BSA in PBS was added to each well and incubated for 5 hr at 37° C. DMSO alone was used as a negative control whereas anti-TWEAK antibody suspended in DMSO was used as a positive control for the assay. Luminescent signal was determined using Bright-Glo assay kit (Promega, Madison, Wis.) according to the manufacturer's instructions and normalized to negative control. A counter-screen assay was carried out using TNFα to stimulate NF-κB activity in NF-κB-Luc reporter cells (HEK293 NF-κB luciferase cells). The counter-screen assay was performed similar to the drug screening assay described above, except 10 μL of 10× purified recombinant TNFα (R&D Scientific; 300 ng/mL) in 1 mg/mL BSA in PBS was added to each well instead of TWEAK for NF-κB activation. […] IC50 values for dose response curve were determined using the curve fitting functionality of GraphPad Prism software.

For `O=C(c1cn(-c2cccc(Cl)c2)nn1)N1CCSCC1` [Compound L524-0366], the IC50 (Homo sapiens, NF-κB-Luc cells stimulated with TNFα, 0.75 μM to 250 μM, read-out: IC50, TNFα stimulated luciferase induction) was 31 µM and the “inhibition of TNFα-induced NF-κB driven luciferase activity” value (NF-κB-Luc cells, 20 μM) was “only minor inhibition”.

Reference: patent US9238034B2, “FN14 antagonists and therapeutic uses thereof” (THE TRANSLATIONAL GENOMICS RESEARCH INSTITUTE, priority 2013, dated 2016)
